SMILES strings stand for the structures.

In experiment [1] the test system is Cavia porcellus. In words: Percent inhibition against antigen induced increase in intranasal pressure in actively sensitized guinea pig administered intravenously with 1 mg/Kg of compound. The format is functional.
Experiment [2] relates to Cavia porcellus. In words: Percent inhibition against increase in specific airway resistance by antigen inhalation in conscious guinea pig administered perorally with 10 mg/Kg of compound, 1 hr before the test. The class given is functional.
For experiment [3], the system named is Cavia porcellus. In words: Effective dose required to inhibit conjuctival microvascular permeability caused by topical application of 0.1% PGD-2 in guinea pig administered perorally with compound, 1 hour before the test. The format is functional.
The test system of experiment [4] is Cavia porcellus. In words: Effective dose required to inhibit conjuctival microvascular permeability caused by topical application of 0.1% antigen in guinea pig administered perorally with compound, 1 hour before the test. The class given is functional.
Experiment [5] has as its target T1, Prostaglandin D2 receptor (Homo sapiens, UniProt Q13258).
T1 sequence (Q13258 whole entry): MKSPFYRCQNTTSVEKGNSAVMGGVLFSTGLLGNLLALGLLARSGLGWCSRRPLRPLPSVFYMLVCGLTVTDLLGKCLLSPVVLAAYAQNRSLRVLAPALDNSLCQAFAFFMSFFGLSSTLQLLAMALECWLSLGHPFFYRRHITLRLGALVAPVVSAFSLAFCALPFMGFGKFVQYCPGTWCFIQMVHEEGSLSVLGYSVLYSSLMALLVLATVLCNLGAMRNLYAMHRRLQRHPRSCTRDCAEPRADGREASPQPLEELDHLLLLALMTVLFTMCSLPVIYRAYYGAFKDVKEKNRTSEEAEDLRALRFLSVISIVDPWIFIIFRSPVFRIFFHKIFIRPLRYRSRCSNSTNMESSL
In words: Prostaglandin D2 receptor antagonist activity, evaluated by inhibition of [3H]PGD-2 binding to human platelet membranes.

The target of experiment [6] is T1, Prostaglandin D2 receptor. In words: Concentration required to inhibit the PGD-2 evoked cAMP formation in human platelets. The format is functional. (In general: cAMP levels reflect the balance of adenylyl cyclase and phosphodiesterase activity.)

Turning to `CC1(C)[C@H]2C[C@H](C/C=C/CCCC(=O)O)[C@@H](NC(=O)c3ccsc3)[C@@H]1C2`, the values for the Inhibition in the experiment on Cavia porcellus [1] and in the experiment on Cavia porcellus [2] were 77% and 15%, respectively. The values for the median effective dose (ED50) with Cavia porcellus [3] and with Cavia porcellus [4] were 3.5 mg/kg and 9.5 mg/kg, respectively. Besides, the IC50 came out at 1600 nM in experiment [5] and 38 nM in experiment [6].

Broadly, the Inhibition is the percentage by which the read-out fell short of the control. For orientation: ED50 means the dose that gives a 50% effect, or the effect in half of the subjects. The IC50 is the midpoint of a concentration-inhibition curve. Low readings indicate greater potency, high ones weaker potency.

The values are drawn from ChEMBL document CHEMBL1144892, “Synthesis and biological activity of various derivatives of a novel class of potent, selective, and orally active prostaglandin D2 receptor antagonists. 2. 6,6-Dimethylbicyclo[3.1.1]heptane derivatives” (J Med Chem, 2003).
